From patent US20250025438A1, “Derivative of aspartic acid and use thereof in treatment of metabolic diseases such as hepatic fibrosis and non-alcoholic hepatitis” (SHENZHEN JINGTAI TECHNOLOGY CO., LTD., priority 2021, published 2025)

Tests used:
Format in all cases: cell-based
COL1A1 = assay: In vitro efficacy in semi-activated LX2 cells, qPCR: COL1A1; details: 48 hours, Q-PCR; for inhibition at 50 µM: Homo sapiens, LX-2, 50 µM, read-out: COL1A1 mRNA inhibition rate
Method: (§1) Test compounds were added to the LX-2 cells respectively, and total RNA in the cells was extracted 48 hours later. This experiment was performed strictly in accordance with the instructions of the Total RNA Kit. The steps were as follows (note: this experiment was performed on ice throughout the entire process, and special RNase-free tips were used throughout the entire process): • 1) The 12-well cell culture plate was taken out from the incubator, the cell culture medium was discarded, the cells were washed twice with 1 mL of 1×PBS, and a negative pressure suction device was used to fully remove PBS; • 2) 350 μL of TRK Lysis Buffer mixture/well was prepared as needed (mixture preparation method: 1 mL of TRKLysis Buffer+20 μL of β-mercaptoethanol), vortexed and mixed well. 350 μL was added to each well of the 12-well cell culture plate, and allowed to stand at room temperature for 5 minutes to fully lyse the cells; • 3) 70% ethanol/well was prepared as needed, vortexed and mixed well. 350 μL was added to each well of the 12-well cell culture plate, mixed well by shaking, and transferred to the spin column (spin column+collection tube were assembled); • 4) Centrifugation was performed at 4° C., 12000 g for 60 sec. The waste liquid was discarded after centrifugation, while the spin column was kept; • 5) 500 μL of RNA Wash Buffer I was added, centrifuged at 4° C., 12000 g for 60 sec, the waste liquid was discarded after centrifugation, and the collection column was kept; • 6) 500 μL of RNA Wash Buffer II (confirmed that ethanol had been added) was added, centrifuged at 4° C., 12000 g for 60 sec, the waste liquid was discarded after centrifugation, and the collection column was kept; • 7) step 6) was repeated once again, centrifugation was performed at 4° C., 12000 g for 90 sec, the waste liquid was discarded after centrifugation, and the collection column was kept; • 8) Centrifugation was performed at 4° C., 12000 g for 120 sec to ensure that the spin column was fully dried; • 9) The dried spin column was inserted into a new 1.5 mL EP tube, and 30 μL of DEPC water was added to the membrane in the center of the spin column. It should be careful not to touch the EP tube cover in this step. It was allowed to stand at room temperature for 5 minutes to ensure that the RNA was fully dissolved in DEPC water. Centrifugation was performed at 4° C., 12000 g for 60 sec, and the EP tube was kept; • 10) NanoDrop ultra-micro-volume spectrophotometer was used to detect RNA concentration;
(§2) 5.2 Reverse transcription of RNA into cDNA: According to the instructions of PrimeScript™ RT reagent Kit (Perfect Real Time), the specific experimental steps were as follows:
(§3) 5.3 Q-PCR detection of target gene expression: According to the instructions of Power SYBR® Green PCR Master Mix, the specific operations were as follows:
(§4) After the reaction was completed, the amplification curve and dissolution curve of Q-PCR were confirmed, and the relative quantification method ([…]) was used to perform data analysis on the experimental results.
(§5) LX2 cells were passaged and plated normally. […] After 48 hours, the cells were collected, total RNA was extracted, and Q-PCR was used to detect the changes in the mRNA expression levels of liver fibrosis-related genes (ACTA2 encoding α-SMA, COL1A1 and COLIA2 encoding collagen I, COL3A1 encoding collagen III, SMAD3 encoding Smad3) and inflammation-related genes (IL1β encoding IL-1β, TNFα encoding TNFα) (for specific methods, see 5. Q-PCR detection of target gene expression as described above). α-SMA was a marker of hepatic stellate cell activation, and collagen I and collagen III were the main components of extracellular matrix deposition.

α-SMA = assay: In vitro efficacy in semi-activated LX2 cells, qPCR: α-SMA; details: 50 µM, 48 hours, Q-PCR, read-out: α-SMA mRNA inhibition rate
Method: as §1, §2, §3, §4, §5

Smad3 = assay: In vitro efficacy in semi-activated LX2 cells, qPCR: Smad3; details: 48 hours, Q-PCR; for inhibition of the expression of Smad3 at the mRNA level: Table 2; for inhibition at 50 µM: Homo sapiens, LX-2, 50 µM, read-out: Smad3 mRNA inhibition rate
Method: as §1, §2, §3, §4, §5

TNF-α = assay: In vitro efficacy in semi-activated LX2 cells, qPCR: TNF-α; details: Homo sapiens, LX-2, 48 hours, Q-PCR, read-out: TNF-α mRNA inhibition rate
Method: as §1, §2, §3, §4
(§6) LX2 cells were passaged and plated normally. After adherent growth for 12 hours, 50 µM of the test compound was added. After 48 hours, the cells were collected, total RNA was extracted, and Q-PCR was used to detect the changes in the mRNA expression levels of liver fibrosis-related genes (ACTA2 encoding α-SMA, COL1A1 and COLIA2 encoding collagen I, COL3A1 encoding collagen III, SMAD3 encoding Smad3) and inflammation-related genes (IL1β encoding IL-1β, TNFα encoding TNFα) (for specific methods, see 5. Q-PCR detection of target gene expression as described above). α-SMA was a marker of hepatic stellate cell activation, and collagen I and collagen III were the main components of extracellular matrix deposition.

[1] = tested on: collagen I and collagen III; assay: Semi-activated LX2 cells, qPCR: collagen I and collagen III at the mRNA level; details: 48 hours, Q-PCR, Table 2
Method: as §1, §3
as §6, with “deposition. […]” for “deposition.”

COL3A1 = assay: In vitro efficacy in semi-activated LX2 cells, qPCR: COL3A1; details: 48 hours, Q-PCR; for inhibition at 50 µM: Homo sapiens, LX-2, 50 µM, read-out: COL3A1 mRNA inhibition rate
Method: as §1, §2, §3, §4, §5

IL-1β = assay: In vitro efficacy in semi-activated LX2 cells, qPCR: IL-1β; details: 48 hours, Q-PCR; for inhibition at 50 µM: Homo sapiens, LX-2, 50 µM, read-out: IL-1β mRNA inhibition rate
Method: as §1, §2, §3, §4, §5

CC(C)(C)OC(=O)N[C@@H](CC(=O)O)C(=O)O [Compound 1]
inhibition at 50 µM (COL1A1): 1 to 10% | inhibition at 50 µM (α-SMA): 1 to 10% | inhibition of the expression of Smad3 at the mRNA level (Smad3): could inhibit | inhibition at 50 µM (Smad3): 10 to 25% | inhibition at 50 µM (TNF-α): 1 to 10%

CC(C)C(=O)N[C@@H](CC(=O)O)C(=O)O [Compound 59, isobutyryl-L-aspartic acid]
inhibition at 50 µM (COL1A1): 10 to 25% | inhibition at 50 µM (α-SMA): 1 to 10% | inhibition at 50 µM (TNF-α): 1 to 10% | inhibition of the expression of collagen I and collagen III at the mRNA level [1]: could inhibit

N[C@@H](CC(=O)NCC(=O)O)C(=O)O [Compound 34]
inhibition at 50 µM (COL3A1): 1 to 10% | inhibition at 50 µM (α-SMA): 1 to 10% | inhibition at 50 µM (Smad3): 1 to 10% | inhibition at 50 µM (IL-1β): 1 to 10% | inhibition at 50 µM (TNF-α): 1 to 10%

COC(=O)[C@@H](N)CC(=O)OC(C)(C)C [Compound 15]
inhibition at 50 µM (COL1A1): 10 to 25% | inhibition at 50 µM (COL3A1): 10 to 25% | inhibition at 50 µM (α-SMA): 1 to 10% | inhibition of the expression of Smad3 at the mRNA level (Smad3): could inhibit | inhibition at 50 µM (Smad3): 10 to 25% | inhibition at 50 µM (TNF-α): 1 to 10% | inhibition of the expression of collagen I and collagen III at the mRNA level [1]: could inhibit

CC(C)OC(=O)C[C@H](N)C(=O)O [Compound 36, 4-isopropyl L-aspartic acid ester]
inhibition at 50 µM (COL3A1): 1 to 10% | inhibition at 50 µM (α-SMA): 1 to 10% | inhibition at 50 µM (Smad3): 1 to 10% | inhibition at 50 µM (TNF-α): 1 to 10%

COC(=O)C[C@H](NC(=O)OC(C)(C)C)C(=O)O [Compound 8]
inhibition at 50 µM (COL1A1): 10 to 25% | inhibition at 50 µM (COL3A1): 10 to 25% | inhibition at 50 µM (Smad3): 1 to 10% | inhibition at 50 µM (IL-1β): 1 to 10% | inhibition of the expression of collagen I and collagen III at the mRNA level [1]: could inhibit

C=CCOC(=O)C[C@H](NC(=O)OCC1c2ccccc2-c2ccccc21)C(=O)O [Compound 11]
inhibition at 50 µM (Smad3): 1 to 10% | inhibition at 50 µM (IL-1β): 25 to 50% | inhibition at 50 µM (TNF-α): 1 to 10%

CC(C)(C)OC(=O)[C@@H](N)CC(=O)O [Compound 14]
inhibition at 50 µM (COL1A1): 10 to 25% | inhibition at 50 µM (COL3A1): 1 to 10% | inhibition at 50 µM (TNF-α): 1 to 10% | inhibition of the expression of collagen I and collagen III at the mRNA level [1]: could inhibit

CC(=O)N[C@@H](CC(=O)OC(C)(C)C)C(=O)O [Compound 31]
inhibition at 50 µM (COL1A1): 1 to 10% | inhibition at 50 µM (α-SMA): 1 to 10% | inhibition at 50 µM (IL-1β): 1 to 10%

COC(=O)C[C@H](N)C(=O)OC(C)(C)C.Cl [Compound 44]
COL1A1 mRNA inhibition rate (COL1A1; 50 µM): D (D represented that the inhibition rate was 10% to 25%) | COL3A1 mRNA inhibition rate (COL3A1; 50 µM): E (E represented that the inhibition rate was 1% to 10%) | IL-1β mRNA inhibition rate (IL-1β; 50 µM): E (E represented that the inhibition rate was 1% to 10%) | inhibition of the expression of collagen I and collagen III at the mRNA level [1]: could inhibit
